Source: patent publication US20250066310A1, “MULTI-SUBSTITUTED URACIL DERIVATIVE AND PREPARATION METHOD THEREFOR AND APPLICATION THEREOF” (HANGZHOU ADAMERCK PHARMLABS INC., priority 2021, published 2025)
Marks after values point to notes of the source that are not given here.

Tests used:
[1] = tested on: mice injected with ellagic acid via the tail vein; assay: Effect on in vivo clotting time in mice (ellagic acid tail vein injection); details: Mus musculus, iv, 100 mg/kg i.g. for 4 days, ellagic acid i.v. 1 h after last dose, vs model group, read-out: Clotting time prolongation (%)
Description: The control and model groups were gavaged with distilled water, and the positive clopidogrel group, and the test substance group were gavaged orally (i.g.) with drug solution in a volume of 0.1 mL/10 g for 4 consecutive days. 1 h after the last administration, all groups were injected with 0.15 mL/10 g of 0.3% ellagic acid solution via tail vein injection except for the blank group which was injected with physiological saline: 0.1 ml/10 g. After 5 min, glass capillaries were used for blood collection through the retro-orbital venous plexus, and the appearance time of coagulation filaments was recorded by glass capillaries at 10-second intervals.
Calculation equation for prolongation of clotting time:
Prolongation of clotting time (%)=[(mean value of clotting time in blank or administered group/mean value of clotting time in model group)−1]×100%

ICR mice = assay: Effect on in vivo bleeding time in mice (tail cut)
Description: A normal control group (blank), positive control group (clopidogrel) and experimental groups were set up with 10 ICR mice (male, weighed about 25 g) in each group. Animals in each group were administered the corresponding drug solution by oral gavage (i.g.) at 0.1 ml/10 g body weight, and the blank control group was given distilled water, once daily for 4 days. On the 4th day, 1 h after the administration of the drug, the animals were anesthetized by intraperitoneal injection of sodium barbiturate at a dose of about 50 mg/kg, and 20 min later, the tails of the mice were cut at a distance of 3 mm from the tip of the tail, and at regular intervals, absorbent paper was used to dip the blood at the severed tails until no blood exuded, which was recorded as the bleeding time, and the results of the experiment were shown in Table 2.
Calculation equation for prolongation of bleeding time: […]

[2] = tested on: rats with focal permanent cerebral ischemia (MCAO); assay: Focal permanent cerebral ischemic injury (MCAO), administration from 3 h post-ischemia; format: in vivo, SD rats
[3] = tested on: acute inflammatory response caused by ellagic acid (serum cytokines); assay: Antibody microarray detection of serum factors in ellagic acid model mice; format: in vivo, ICR mice; set-up: TNFa / IL-6 / IL-1b / IL-5 / IL-13 / IL-1α / IL-1β / IL-2 / IL-3 / IL-4 / IFNg / CD40: unit not given here
Description: Experimental methods: ICR male mice, weighed about 25 g, were randomly divided into four groups: normal group, ellagic acid model group, 1-1 group, and 1-22 group, with four mice in each group. Mice in 1-1 group and 1-22 group were given 1-1, 100 mg/kg and 1-22, 100 mg/kg by gavage once a day respectively. 1 h after the third administration, except for the normal control group, the other three groups of mice were injected into the tail vein with 0.10 mL/10 g of 0.3% ellagic acid saline solution, and 1 h after injection, whole blood was collected from each animal, and centrifuged (3,000 rpm/min) for 10 min after 30 min of standing, and then centrifuged to obtain the serum. The serum from each group of animal was mixed in an EP tube, transported at −80° C., and sent for antibody microarray detection.

[4] = tested on: rats with myocardial ischemia-reperfusion injury; assay: Myocardial ischemia-reperfusion injury caused by coronary artery ligation in rats; format: in vivo; details: x ± s, n = 8
Description: Experimental Methods: A model of myocardial ischemia/reperfusion (MI/R) injury caused by coronary artery ligation was established in rats, and animals were grouped into high-dose (20 mg/kg), medium-dose (10 mg/kg), low-dose (5 mg/kg) of the test drug, clopidogrel (7.5 mg/kg), sham, and model groups. Equal volume of 0.5% CMC-Na was administered at 0.5 ml/100 g body weight in both sham and model groups. The drug was administered by gavage (i.g.) once a day for 5 consecutive days. Modeling was performed 30 min after the last administration, and after modeling, 8 successfully modeled rats were selected from each group for subsequent experiments. The sham group was placed a wire under the left anterior descending branch of the coronary artery according to the model preparation method without ligation, and the other groups were modeled according to the model preparation method. The effects of the test drugs on the cardiac infarction rate and the biochemical indexes of creatine kinase (CK), lactate dehydrogenase (LDH), malondialdehyde (MDA), and superoxide dismutase (SOD) in plasma were detected, and TTC staining of the heart was performed to detect the effects of the test drugs on the area of myocardial infarction in MI/R rats.

[5] = 100 mg/kg i.g. once daily for 4 days
[6] = Table 16, pooled serum, 100 mg/kg by gavage
[7] = Table 17, pooled serum, 100 mg/kg by gavage
[8] = Table 18, pooled serum, 100 mg/kg by gavage
[9] = Table 19, pooled serum, 100 mg/kg by gavage

Row | Structure (SMILES) | change in vivo at 100 mg/kg [1] [%] | Bleeding time prolongation (%) (ICR mice; [5]) | other results
1 | CCOC(=O)CCNC(=O)CCNc1cc(=O)n(C)c(=O)n1Cc1ccccc1C#N [Compound 1-17] | 44.1 | −6.20 | 
2 | CCOC(=O)CCNC(=O)CCNc1cc(=O)n(C2CCCC2)c(=O)n1C1CCCC1 [Compound 1-54] | 37.2 | 13.00 | 
3 | Cn1c(NCCC(=O)NCCC(=O)OC2CC2)cc(=O)n(C)c1=O [Compound 1-5] | 41.9 | −13.60 | 
4 | CCOC(=O)CCNC(=O)CCNc1cc(=O)n(Cc2cccnc2)c(=O)n1Cc1cccnc1 [Compound 1-55] | 38.6 | −3.10 | 
5 | CC(C)OC(=O)CCNC(=O)CCNc1cc(=O)n(C)c(=O)n1Cc1cccnc1 [Compound 1-27] | 39.5 | 23.50 | 
6 | CCOC(=O)CCCCCNC(=O)CCCCCNc1cc(=O)n(C)c(=O)n1C [Compound 1-23] | 38.1 | −19.20 | 
7 | Cn1c(=O)cc(NCCC(=O)NCCC(=O)Oc2ccccc2)n(Cc2cc(F)ccc2C#N)c1=O [Compound 1-15] | 42 | −4.70 | 
8 | CC(C)OC(=O)CCNC(=O)CCNc1cc(=O)n(Cc2ccccc2)c(=O)n1Cc1ccccc1 [Compound 1-26] | 40.4 | −13.30 | 
9 | Cc1cccc(C)c1OC(=O)CCNC(=O)CCNc1cc(=O)n(C)c(=O)n1Cc1cc(F)ccc1C#N [Compound 1-19] | 60.4 | −38.00 | 
10 | Cn1c(NCCC(=O)NCCC(=O)OC2CC3CCC2(C)C3(C)C)cc(=O)n(C)c1=O (centres unmarked) [Compound 1-4] | 39.7 | 16.40 | 
11 | CCOC(=O)CCCCCNC(=O)CCCCCNc1cc(=O)[nH]c(=O)[nH]1 [Compound 1-38] | 37.5 | 28.40 | 
12 | CC(C)OC(=O)CCNC(=O)CCNc1cc(=O)n(Cc2cccnc2)c(=O)n1Cc1cccnc1 [Compound 1-34] | 53.5 | −2.10 | 
13 | CCOC(=O)CCNC(=O)[C@@H](Nc1cc(=O)n(C)c(=O)n1C)C(C)CC (some centres unmarked) [Compound 1-37] | 32.6 | 48.80 | 
14 | CCCCC1OC(=O)c2ccccc21 (centres unmarked) [Butylphthalide, butylphthalide, reference compound] |  |  | Number of survivors after 15 days animal ([2]; 60 mg/kg by gavage once a day, 15 enrolled): 7; Mortality (%) ([2]; 15-day, 60 mg/kg by gavage): 53.33%; Neurological function score on day 15 ([2]; Bederson's method, 60 mg/kg): 1.25; Weight on day 1 ([2]; mean body weight, 60 mg/kg): 281.00 g; Weight on day 5 ([2]; mean body weight, 60 mg/kg): 234.27 g; Weight on day 15 ([2]; mean body weight, 60 mg/kg): 276.75 g
15 | Cn1c(=O)cc(NCCC(=O)NCCC(=O)Oc2ccccc2)n(Cc2ccccc2)c1=O [Compound 1-30] | 39.8 | −9.70 | 
16 | CC(C)OC(=O)CCNC(=O)CCNc1cc(=O)n(C)c(=O)n1Cc1cc(F)ccc1C#N [Compound 1-13] | 39.8 | 15.60 | 
17 | CCOC(=O)CCCCNC(=O)CCCCNC(=O)CCCCNc1cc(=O)n(C)c(=O)n1C [Compound 1-48] | 38.6 | 26.40 | 
18 | Cn1c(NCCCCCC(=O)NCCCCCC(=O)O)cc(=O)n(C)c1=O [Compound 1-24] | 36.7 | 20.60 | 
19 | Cn1c(NCCC(=O)NCCC(=O)Oc2ccccc2)cc(=O)n(C)c1=O [Compound 1-7] | 41.7 | 15.10 | 
20 | CC1CCC(C(C)C)C(OC(=O)CCNC(=O)CCNc2cc(=O)n(C)c(=O)n2Cc2cc(F)ccc2C#N)C1 (centres unmarked) [Compound 1-16] | 38 | 11.00 | 
21 | CCOC(=O)[C@H](NC(=O)CCNc1cc(=O)n(C)c(=O)n1C)C(C)C [Compound 1-42] | 41.4 | −13.40 | 
22 | CC(C)OC(=O)CCNC(=O)CCN(C)c1cc(=O)n(C)c(=O)n1Cc1cc(F)ccc1C#N [Compound 1-45] | 43.1 | 18.60 | 
23 | CCOC(=O)CCNC(=O)[C@H](Nc1cc(=O)n(C)c(=O)n1C)C(C)CC (some centres unmarked) [Compound 1-22] | 40.7 | 19.83 | IL-6 [3, 6]: 10,273.27*; RANTES/ccl5 [3, 6]: 1,909.28*; TNFa [3, 6]: 290.22*; IL-1b ([3]; Table 16, pooled serum, 100 mg/kg by gavage once a day x3, 1 h after ellagic acid): 268.76*; IL-1α [3, 7]: 837.49*; IL-1β [3, 7]: 268.76*; IL-2 [3, 7]: 464.49; IL-3 [3, 7]: 872.26*; IL-4 [3, 7]: 961.11*; IL-5 [3, 7]: 227.55*; IL-6 [3, 7]: 10,273.27*; IL-13 [3, 7]: 620.73*; Eotaxin/CCL11 [3, 8]: 3,096.53*; MCP1/CCL2 [3, 8]: 2,231.63*; MIP-3a/CCL20 [3, 8]: 1,252.13*; RANTES/CCL5 [3, 8]: 1,909.28*; CD40 [3, 9]: 509.56*; IFNg [3, 9]: 218.11*; number of down-regulated differential proteins ([3]; interleukin factors (Table 17), compared with the model group): seven
24 | CC1CCC(C(C)C)C(OC(=O)CCNC(=O)CCNc2cc(=O)n(C)c(=O)n2Cc2cccnc2)C1 (centres unmarked) [Compound 1-32] | 48.4 | −9.00 | 
25 | CCOC(=O)CCNC(=O)CCNc1cc(=O)[nH]c(=N)[nH]1 [Compound 1-39] | 37.2 | 16.90 | 
26 | CC(C)OC(=O)CCNC(=O)CCNc1cc(=O)n(C)c(=O)n1C [Compound 1-2] | 49.9 | 6.50 | 
27 | COC(=O)[C@H](c1ccccc1Cl)N1CCc2sccc2C1 [Clopidogrel, clopidogrel, reference compound] | 36.8 |  | Cardiac infarction rate (%) ([4]; 7.5 mg/kg i.g. once a day for 5 days): 14.29 ± 6.82 %; Pathological Score ([4]; myocardium, 7.5 mg/kg i.g.): 1.88 ± 0.64; CK (U/mL) ([4]; plasma, 7.5 mg/kg i.g.): 0.32 ± 0.20 U/mL; LDH (U/L) ([4]; plasma, 7.5 mg/kg i.g.): 8522.72 ± 626.17 U/L; MDA ([4]; plasma, 7.5 mg/kg i.g.): 15.90 ± 1.37 nmol/mL; SOD (U/mL) ([4]; plasma, 7.5 mg/kg i.g.): 40.92 ± 1.67 U/mL; Bleeding time prolongation (%) (ICR mice; 15 mg/kg i.g. once daily for 4 days): >579.89%
28 | CCOC(=O)CCNC(=O)CCNc1cc(=O)n(C)c(=O)n1Cc1cc(F)ccc1C#N [Compound 1-18] | 42.9 | 13.30 | 
29 | Cn1c(NCCC(=O)NCCC(=O)OC2CCCCC2)cc(=O)n(C)c1=O [Compound 1-6] | 42.4 | 4.80 | 
30 | Cc1cccc(C)c1OC(=O)CCNC(=O)CCNc1cc(=O)n(C)c(=S)n1C [Compound 1-11] | 39.3 | 20.60 | 
